Values quoted from earlier work as cited in patent US20120136048A1, “TOPICAL, PERIOCULAR, OR INTRAOCULAR USE OF TOCOTRIENOLS FOR THE TREATMENT OF OPHTHALMIC DISEASES” (priority 2009, published 2012).

Details: rat ocular tissues, every tissue to which it was administered

concentration in ocular tissues after topical ophthalmic administration | SMILES
no significant increase | Cc1c(C)c2c(c(C)c1O)CC[C@@](C)(CCC[C@H](C)CCC[C@H](C)CCCC(C)C)O2 [alpha-tocopherol]
increased markedly | CC(C)=CCC/C(C)=C/CC/C(C)=C/CC[C@]1(C)CCc2c(C)c(O)c(C)c(C)c2O1 [alpha-tocotrienol, Alpha-Tocotrienol]
